Converted amounts (≈) assume the structure as drawn. “And” between values parts separate entries of the source, which are not always exact repeats. Identical values can stand only once. Like-named read-outs stand apart in the source and are kept apart here.
What was measured:
Assay in all cases: microbe, parasite or virus in culture
Type in all cases: cell-based
[1] = system: microorganisms with acquired resistance; conditions: for MIC comb. (antibiotic agent): with MBI 29; for Peptide MIC Alone: Tobramycin section; for FIC: peptide + Tobramycin
[2] = system: inherently resistant microorganisms
bacterial isolates = conditions: for FIC: peptide + Tobramycin
[3] = Acinetobacter baumannii, read-out: Tobramycin MIC Alone, A. baumannii ABI001
[4] = Acinetobacter baumannii, read-out: Tobramycin MIC Alone, A. baumannii ABI002
[5] = Pseudomonas aeruginosa, read-out: Tobramycin MIC Alone, P. aeruginosa PA008
[6] = Pseudomonas aeruginosa, read-out: Tobramycin MIC Alone, P. aeruginosa PA022
[7] = Pseudomonas aeruginosa, read-out: Tobramycin MIC Alone, P. aeruginosa PA025
[8] = Pseudomonas aeruginosa, read-out: Tobramycin MIC Alone, P. aeruginosa PA026
[9] = Pseudomonas aeruginosa, read-out: Tobramycin MIC Alone, P. aeruginosa PA030
[10] = Pseudomonas aeruginosa, read-out: Tobramycin MIC Alone, P. aeruginosa PA032
[11] = Staphylococcus epidermidis, read-out: Tobramycin MIC Alone, S. epidermidis SE068
[12] = Staphylococcus epidermidis, read-out: Tobramycin MIC Alone, S. epidermidis SE072
[13] = Staphylococcus epidermidis, read-out: Tobramycin MIC Alone, S. epidermidis SE073
[14] = Staphylococcus epidermidis, read-out: Tobramycin MIC Alone, S. epidermidis SE080
[15] = Stenotrophomonas maltophilia, read-out: Tobramycin MIC Alone, S. maltophilia SMA029
[16] = Stenotrophomonas maltophilia, read-out: Tobramycin MIC Alone, S. maltophilia SMA030
[17] = Stenotrophomonas maltophilia, read-out: Tobramycin MIC Alone, S. maltophilia SMA031
[18] = Stenotrophomonas maltophilia, read-out: Tobramycin MIC Alone, S. maltophilia SMA032
[19] = S. maltophilia (strain code stands in r800, not shown)

## NC[C@H]1O[C@H](O[C@H]2[C@H](O)[C@@H](O[C@H]3O[C@H](CO)[C@@H](O)[C@H](N)[C@H]3O)[C@H](N)C[C@@H]2N)[C@H](N)C[C@@H]1O [Tobramycin]
[1]; A. calcoaceticus
  MIC comb. (antibiotic agent): 1 µg/mL (≈ 2.14 µM)
[1]; [3]
  MIC: 16 µg/mL (≈ 34.2 µM)
[1]; [4]
  MIC: 8 µg/mL (≈ 17.1 µM)
[1]; Acinetobacter calcoaceticus, read-out: MIC alone (antibiotic agent), A. calcoaceticus
  MIC: 8 µg/mL (≈ 17.1 µM)
[1]; Escherichia coli, read-out: Tobramycin MIC Alone, E. coli EC0006
  MIC: 8 µg/mL (≈ 17.1 µM)
[1]; P. aeruginosa PA032
  Tobramycin MIC Alone: 8 µg/mL
[1]; P. aeruginosa
  MIC comb. (antibiotic agent): 1 µg/mL (≈ 2.14 µM)
[1]; Pseudomonas aeruginosa, read-out: MIC alone (antibiotic agent), P. aeruginosa
  MIC: 64 µg/mL (≈ 137 µM)
[1]; [5]
  MIC: 32 µg/mL (≈ 68.4 µM)
[1]; [6]
  MIC: 8 µg/mL (≈ 17.1 µM)
[1]; [7]
  MIC: 32 µg/mL (≈ 68.4 µM)
[1]; [8]
  MIC: 8 µg/mL (≈ 17.1 µM)
[1]; [9]
  MIC: 16 µg/mL (≈ 34.2 µM)
[1]; Pseudomonas aeruginosa, read-out: Tobramycin MIC Alone, P. aeruginosa PA031
  MIC: 16 µg/mL (≈ 34.2 µM)
[1]; [10]
  MIC: 16 µg/mL (≈ 34.2 µM)
[1]; S. maltophilia SMA031
  Tobramycin MIC Alone: 128 µg/mL and >128 µg/mL
[1]; [11]
  MIC: > 128 µg/mL
[1]; Staphylococcus epidermidis, read-out: Tobramycin MIC Alone, S. epidermidis SE071
  MIC: > 128 µg/mL
[1]; [12]
  MIC: > 128 µg/mL
[1]; [13]
  MIC: > 128 µg/mL
[1]; [14]
  MIC: 16 µg/mL (≈ 34.2 µM)
[1]; [15]
  MIC: 128 µg/mL (≈ 274 µM)
[1]; [16]
  MIC: 128 µg/mL (≈ 274 µM)
[1]; [17]
  MIC: 64 µg/mL (≈ 137 µM)
[1]; [18]
  MIC: 128 µg/mL (≈ 274 µM)
[2]; Staphylococcus aureus, read-out: Tobramycin MIC + Peptide, S. aureus, peptide MBI 11A1CN
  MIC: 0.125 µg/mL
[2]; Staphylococcus aureus, read-out: Tobramycin MIC + Peptide, S. aureus, peptide MBI 11D18CN
  MIC: 4 µg/mL
[2]; Staphylococcus aureus, read-out: Tobramycin MIC + Peptide, S. aureus, peptide MBI 11F3CN
  MIC: 2 µg/mL
[2]; Staphylococcus aureus, read-out: Tobramycin MIC + Peptide, S. aureus, peptide MBI 11G13CN
  MIC: 0.125 µg/mL
[2]; Staphylococcus aureus, read-out: Tobramycin MIC + Peptide, S. aureus, peptide MBI 21A1
  MIC: 0.125 µg/mL
[2]; Staphylococcus aureus, read-out: Tobramycin MIC + Peptide, S. aureus, peptide MBI 22A1
  MIC: 4 µg/mL
[2]; Staphylococcus aureus, read-out: Tobramycin MIC Alone, S. aureus
  MIC: > 128 µg/mL
[2]; Staphylococcus haemolyticus, read-out: Tobramycin MIC + Peptide, S. haemolyticus, peptide MBI 11A1CN
  MIC: 4 µg/mL
[2]; Staphylococcus haemolyticus, read-out: Tobramycin MIC Alone, S. haemolyticus
  MIC: 8 µg/mL (≈ 17.1 µM)
Bacterial isolates; A. baumannii ABI002
  Tobramycin MIC Alone: 4 µg/mL
Bacterial isolates; [3]
  MIC: 16 µg/mL (≈ 34.2 µM)
Bacterial isolates; [4]
  MIC: 8 µg/mL (≈ 17.1 µM)
Bacterial isolates; Burkholderia cepacia, read-out: Tobramycin MIC Alone, B. cepacia BC001
  MIC: 128 µg/mL (≈ 274 µM)
Bacterial isolates; Burkholderia cepacia, read-out: Tobramycin MIC Alone, B. cepacia BC002
  MIC: > 128 µg/mL
Bacterial isolates; Escherichia coli, read-out: Tobramycin MIC Alone, E. coli ECO004
  MIC: 2 µg/mL (≈ 4.28 µM)
Bacterial isolates; Escherichia coli, read-out: Tobramycin MIC Alone, E. coli ECO006
  MIC: 8 µg/mL (≈ 17.1 µM)
Bacterial isolates; Klebsiella pneumoniae, read-out: Tobramycin MIC Alone, K. pneumoniae KP008
  MIC: 0.5 µg/mL (≈ 1.07 µM)
Bacterial isolates; [5]
  MIC: 32 µg/mL (≈ 68.4 µM)
Bacterial isolates; [6]
  MIC: 8 µg/mL (≈ 17.1 µM)
Bacterial isolates; [7]
  MIC: 32 µg/mL (≈ 68.4 µM)
Bacterial isolates; [8]
  MIC: 8 µg/mL (≈ 17.1 µM)
Bacterial isolates; Pseudomonas aeruginosa, read-out: Tobramycin MIC Alone, P. aeruginosa PA028
  MIC: 32 µg/mL (≈ 68.4 µM)
Bacterial isolates; Pseudomonas aeruginosa, read-out: Tobramycin MIC Alone, P. aeruginosa PA029
  MIC: 32 µg/mL (≈ 68.4 µM)
Bacterial isolates; [9]
  MIC: 16 µg/mL (≈ 34.2 µM)
Bacterial isolates; [10]
  MIC: 16 µg/mL (≈ 34.2 µM)
Bacterial isolates; S. haemolyticus SHA005
  Tobramycin MIC Alone: 4 µg/mL
Bacterial isolates; S. maltophilia SMA031
  Tobramycin MIC Alone: >128 µg/mL
Bacterial isolates; Staphylococcus aureus, MRSA, read-out: Tobramycin MIC Alone, S. aureus SA014 (also SA014 MRSA)
  MIC: > 128 µg/mL
Bacterial isolates; Staphylococcus aureus, MRSA, read-out: Tobramycin MIC Alone, S. aureus SA014 MRSA
  MIC: > 128 µg/mL
Bacterial isolates; Staphylococcus aureus, MRSA, read-out: Tobramycin MIC Alone, S. aureus SA018 MRSA
  MIC: 64 µg/mL (≈ 137 µM)
Bacterial isolates; Staphylococcus aureus, MRSA, read-out: Tobramycin MIC Alone, S. aureus SA025 (also SA025 MRSA)
  MIC: > 128 µg/mL
Bacterial isolates; Staphylococcus epidermidis, read-out: Tobramycin MIC Alone, S. epidermidis SE067
  MIC: > 128 µg/mL
Bacterial isolates; [11]
  MIC: > 128 µg/mL
Bacterial isolates; [12]
  MIC: > 128 µg/mL
Bacterial isolates; [13]
  MIC: > 128 µg/mL
Bacterial isolates; [14]
  MIC: 32 µg/mL (≈ 68.4 µM)
Bacterial isolates; Staphylococcus haemolyticus, read-out: Tobramycin MIC Alone, S. haemolyticus SHA001
  MIC: 4 µg/mL (≈ 8.56 µM)
Bacterial isolates; Staphylococcus haemolyticus, read-out: Tobramycin MIC Alone, S. haemolyticus SHA005
  MIC: 8 µg/mL (≈ 17.1 µM)
Bacterial isolates; Stenotrophomonas maltophilia, read-out: Tobramycin MIC Alone, S. maltophilia (strain code stands in r800, not shown)
  MIC: 128 µg/mL (≈ 274 µM)
Bacterial isolates; Stenotrophomonas maltophilia, read-out: Tobramycin MIC Alone, S. maltophilia SMA027
  MIC: 32 µg/mL (≈ 68.4 µM)
Bacterial isolates; [15]
  MIC: 128 µg/mL (≈ 274 µM)
Bacterial isolates; [16]
  MIC: 128 µg/mL (≈ 274 µM)
Bacterial isolates; [17]
  MIC: 128 µg/mL (≈ 274 µM)
Bacterial isolates; [18]
  MIC: 128 µg/mL (≈ 274 µM)
Bacterial isolates; Stenotrophomonas maltophilia, read-out: Tobramycin MIC Alone, S. maltophilia SMA035
  MIC: 32 µg/mL (≈ 68.4 µM)

## Gentamicin
[1]; A. baumannii ABI002
  Gentamicin MIC Alone: 16 µg/mL and 32 µg/mL
[1]; A. calcoaceticus AC001
  Gentamicin MIC Alone: 8 µg/mL
[1]; P. aeruginosa PA022
  Gentamicin MIC Alone: 32 µg/mL
[1]; P. aeruginosa PA023
  Gentamicin MIC Alone: 8 µg/mL and 16 µg/mL
[1]; P. aeruginosa PA041
  Gentamicin MIC Alone: 8 µg/mL and 16 µg/mL
[2]; S. aureus MRSA
  Gentamicin MIC Alone: 32 µg/mL
[2]; S. aureus MRSA, peptide MBI 11B16CN
  Gentamicin MIC + Peptide: 1 µg/mL
Bacterial isolates; A. calcoaceticus AC001
  Gentamicin MIC Alone: 8 µg/mL
Bacterial isolates; E. faecalis EFS008
  Gentamicin MIC Alone: >128 µg/mL and 128 µg/mL
Bacterial isolates; E. faecium EFM004
  Gentamicin MIC Alone: >128 µg/mL
Bacterial isolates; P. aeruginosa PA022
  Gentamicin MIC Alone: 32 µg/mL and 16 µg/mL
Bacterial isolates; P. aeruginosa PA023
  Gentamicin MIC Alone: 8 µg/mL
Bacterial isolates; P. aeruginosa PA041
  Gentamicin MIC Alone: 8 µg/mL and 16 µg/mL
Bacterial isolates; S. aureus SA014 MRSA
  Gentamicin MIC Alone: 32 µg/mL
Bacterial isolates; S. epidermidis SE071
  Gentamicin MIC Alone: 16 µg/mL
Bacterial isolates; S. epidermidis SE074
  Gentamicin MIC Alone: 128 µg/mL
Bacterial isolates; S. maltophilia (strain line r400 not shown)
  Gentamicin MIC Alone: 128 µg/mL
Bacterial isolates; S. maltophilia SMA016
  Gentamicin MIC Alone: >128 µg/mL and 128 µg/mL
Bacterial isolates; S. maltophilia SMA017
  Gentamicin MIC Alone: 128 µg/mL

## KKWWRRALQALKNGLPALIS [MBI 22A1]
[1]; A. baumannii ABI001
  Peptide MIC + Tobramycin: 2 µg/mL
  Tobramycin MIC + Peptide: 4 µg/mL
  Peptide MIC Alone: 4 µg/mL
  FIC: 0.75
[1]; S. epidermidis SE072
  Peptide MIC + Tobramycin: 8 µg/mL
  Tobramycin MIC + Peptide: 0.125 µg/mL
  Peptide MIC Alone: 16 µg/mL
  FIC: 0.50
[1]; S. epidermidis SE073
  Peptide MIC + Tobramycin: 8 µg/mL
  Tobramycin MIC + Peptide: 0.125 µg/mL
  Peptide MIC Alone: 16 µg/mL
  FIC: 0.50
[1]; S. maltophilia SMA029
  Peptide MIC + Tobramycin: 8 µg/mL and 16 µg/mL
  Peptide MIC Alone: 16 µg/mL and 32 µg/mL
  FIC: 0.51 and 0.50
[2]; S. aureus
  Peptide MIC + Tobramycin: 2 µg/mL
[2]; S. aureus, Tobramycin section
  Peptide MIC Alone: 8 µg/mL
[2]; peptide + Tobramycin, S. aureus
  FIC: 0.27
Bacterial isolates; S. aureus SA014 MRSA
  Peptide MIC + Tobramycin: 2 µg/mL
  Peptide MIC Alone: 8 µg/mL
  Tobramycin MIC + Peptide: 4 µg/mL
  FIC: 0.27
Bacterial isolates; S. epidermidis SE072
  Peptide MIC + Tobramycin: 8 µg/mL
  Peptide MIC Alone: 16 µg/mL
  Tobramycin MIC + Peptide: 0.125 µg/mL
  FIC: 0.50
Bacterial isolates; S. epidermidis SE073
  Peptide MIC + Tobramycin: 8 µg/mL
  Peptide MIC Alone: 16 µg/mL
  Tobramycin MIC + Peptide: 0.125 µg/mL
  FIC: 0.50
Bacterial isolates; S. epidermidis SE080
  Peptide MIC + Tobramycin: 0.125 µg/mL
  Peptide MIC Alone: 2 µg/mL
  Tobramycin MIC + Peptide: 16 µg/mL
  FIC: 0.56
Bacterial isolates; [19]
  Peptide MIC + Tobramycin: 8 µg/mL
  Tobramycin MIC + Peptide: 0.5 µg/mL
  FIC: 0.25
Bacterial isolates; S. maltophilia (strain code stands in r800, not shown), Tobramycin section
  Peptide MIC Alone: 32 µg/mL
Bacterial isolates; S. maltophilia SMA030
  Peptide MIC + Tobramycin: 8 µg/mL
  Tobramycin MIC + Peptide: 1 µg/mL
  FIC: 0.26
Bacterial isolates; S. maltophilia SMA030, Tobramycin section
  Peptide MIC Alone: 32 µg/mL

Source: patent publication US20020035061A1, “COMPOSITIONS AND METHODS FOR TREATING INFECTIONS USING CATIONIC PEPTIDES ALONE OR IN COMBINATION WITH ANTIBIOTICS” (priority 1996, published 2002)
